Test results from ChEMBL document CHEMBL3112480, “γ-Alkylidene-γ-lactones and isobutylpyrrol-2(5H)-ones analogues to rubrolides as inhibitors of biofilm formation by gram-positive and gram-negative bacteria” (Bioorg Med Chem Lett, 2014).
In brackets after ≈: the same amount, converted by molar mass.

Legend:
[1] = test system: Staphylococcus epidermidis; assay: Antibacterial activity against Staphylococcus epidermidis ATCC 35547 assessed as effect on planktonic growth at 1.37 ug/ml after 20 hrs relative to control; format: functional
[2] = test system: Staphylococcus epidermidis; assay: Antibacterial activity against Staphylococcus epidermidis ATCC 35547 assessed as effect on planktonic growth at 43.8 ug/ml after 20 hrs relative to control; format: functional
[3] = test system: Staphylococcus epidermidis; assay: Antibacterial activity against Staphylococcus epidermidis ATCC 35547 assessed as effect on planktonic growth at 2.73 ug/ml after 20 hrs relative to control; format: functional
[4] = test system: Streptococcus mutans; assay: Antibacterial activity against Streptococcus mutans ATCC 25175 assessed as effect on planktonic growth at 5.5 ug/ml after 20 hrs relative to control; format: functional
[5] = test system: Streptococcus mutans; assay: Antibacterial activity against Streptococcus mutans ATCC 25175 assessed as effect on planktonic growth at 2.73 ug/ml after 20 hrs relative to control; format: functional
[6] = test system: Streptococcus mutans; assay: Antibacterial activity against Streptococcus mutans ATCC 25175 assessed as effect on planktonic growth at 21.9 ug/ml after 20 hrs relative to control; format: functional
[7] = test system: Staphylococcus epidermidis; assay: Antibacterial activity against Staphylococcus epidermidis ATCC 35547 assessed as effect on planktonic growth at 0.34 ug/ml after 20 hrs relative to control; format: functional
[8] = test system: Staphylococcus aureus; assay: Antibacterial activity against Staphylococcus aureus ATCC 25923 assessed as effect on planktonic growth at 21.9 ug/ml after 20 hrs relative to control; format: functional
[9] = test system: Staphylococcus epidermidis; assay: Antibacterial activity against Staphylococcus epidermidis ATCC 35547 assessed as effect on planktonic growth at 0.68 ug/ml after 20 hrs relative to control; format: functional
[10] = test system: Staphylococcus epidermidis; assay: Antibacterial activity against Staphylococcus epidermidis ATCC 35547 assessed as effect on planktonic growth at 21.9 ug/ml after 20 hrs relative to control; format: functional
[11] = test system: Staphylococcus epidermidis; assay: Antibacterial activity against Staphylococcus epidermidis ATCC 35547 assessed as effect on planktonic growth at 10.9 ug/ml after 20 hrs relative to control; format: functional
[12] = test system: Pseudomonas aeruginosa; assay: Antibacterial activity against Pseudomonas aeruginosa ATCC 27853 assessed as effect on planktonic growth at 10.9 ug/ml after 20 hrs relative to control; format: functional
[13] = test system: Streptococcus mutans; assay: Antibacterial activity against Streptococcus mutans ATCC 25175 assessed as effect on planktonic growth at 10.9 ug/ml after 20 hrs relative to control; format: functional
[14] = test system: Staphylococcus epidermidis; assay: Antibacterial activity against Staphylococcus epidermidis ATCC 35547 assessed as effect on planktonic growth at 87.5 ug/ml after 20 hrs relative to control; format: functional
[15] = test system: Pseudomonas aeruginosa; assay: Antibacterial activity against Pseudomonas aeruginosa ATCC 27853 assessed as effect on planktonic growth at 0.68 ug/ml after 20 hrs relative to control; format: functional
[16] = test system: Pseudomonas aeruginosa; assay: Antibacterial activity against Pseudomonas aeruginosa ATCC 27853 assessed as effect on planktonic growth at 43.8 ug/ml after 20 hrs relative to control; format: functional
[17] = test system: Pseudomonas aeruginosa; assay: Antibacterial activity against Pseudomonas aeruginosa ATCC 27853 assessed as inhibition of biofilm formation after 20 hrs by crystal-violet staining method; format: functional, organism-based; conditions: for IC50: ATCC 27853, 20 h
[18] = test system: Streptococcus mutans; assay: Antibacterial activity against Streptococcus mutans ATCC 25175 assessed as effect on planktonic growth at 1.37 ug/ml after 20 hrs relative to control; format: functional
[19] = test system: Staphylococcus aureus; assay: Antibacterial activity against Staphylococcus aureus ATCC 25923 assessed as effect on planktonic growth at 0.34 ug/ml after 20 hrs relative to control; format: functional
[20] = test system: Pseudomonas aeruginosa; assay: Antibacterial activity against Pseudomonas aeruginosa ATCC 27853 assessed as effect on planktonic growth at 2.73 ug/ml after 20 hrs relative to control; format: functional
[21] = test system: Streptococcus mutans; assay: Antibacterial activity against Streptococcus mutans ATCC 25175 assessed as effect on planktonic growth at 0.17 ug/ml after 20 hrs relative to control; format: functional
[22] = test system: Streptococcus mutans; assay: Antibacterial activity against Streptococcus mutans ATCC 25175 assessed as effect on planktonic growth at 0.34 ug/ml after 20 hrs relative to control; format: functional
[23] = test system: Staphylococcus aureus; assay: Antibacterial activity against Staphylococcus aureus ATCC 25923 assessed as effect on planktonic growth at 43.8 ug/ml after 20 hrs relative to control; format: functional
[24] = test system: Pseudomonas aeruginosa; assay: Antibacterial activity against Pseudomonas aeruginosa ATCC 27853 assessed as effect on planktonic growth at 0.34 ug/ml after 20 hrs relative to control; format: functional
[25] = test system: Pseudomonas aeruginosa; assay: Antibacterial activity against Pseudomonas aeruginosa ATCC 27853 assessed as effect on planktonic growth at 87.5 ug/ml after 20 hrs relative to control; format: functional
[26] = test system: Staphylococcus aureus; assay: Antibacterial activity against Staphylococcus aureus ATCC 25923 assessed as effect on planktonic growth at 2.73 ug/ml after 20 hrs relative to control; format: functional
[27] = test system: Staphylococcus aureus; assay: Antibacterial activity against Staphylococcus aureus ATCC 25923 assessed as effect on planktonic growth at 0.68 ug/ml after 20 hrs relative to control; format: functional
[28] = test system: Staphylococcus epidermidis; assay: Antibacterial activity against Staphylococcus epidermidis ATCC 35547 assessed as inhibition of biofilm formation after 20 hrs by crystal-violet staining method; format: functional, organism-based; conditions: for IC50: ATCC 35547, 20 h
[29] = test system: Pseudomonas aeruginosa; assay: Antibacterial activity against Pseudomonas aeruginosa ATCC 27853 assessed as effect on planktonic growth at 5.5 ug/ml after 20 hrs relative to control; format: functional
[30] = test system: Pseudomonas aeruginosa; assay: Antibacterial activity against Pseudomonas aeruginosa ATCC 27853 assessed as effect on planktonic growth at 21.9 ug/ml after 20 hrs relative to control; format: functional
[31] = test system: Staphylococcus aureus; assay: Antibacterial activity against Staphylococcus aureus ATCC 25923 assessed as effect on planktonic growth at 1.37 ug/ml after 20 hrs relative to control; format: functional
[32] = test system: Streptococcus mutans; assay: Antibacterial activity against Streptococcus mutans ATCC 25175 assessed as effect on planktonic growth at 87.5 ug/ml after 20 hrs relative to control; format: functional
[33] = test system: Staphylococcus epidermidis; assay: Antibacterial activity against Staphylococcus epidermidis ATCC 35547 assessed as effect on planktonic growth at 0.17 ug/ml after 20 hrs relative to control; format: functional
[34] = test system: Staphylococcus aureus; assay: Antibacterial activity against Staphylococcus aureus ATCC 25923 assessed as effect on planktonic growth at 10.9 ug/ml after 20 hrs relative to control; format: functional
[35] = test system: Streptococcus mutans; assay: Antibacterial activity against Streptococcus mutans ATCC 25175 assessed as effect on planktonic growth at 43.8 ug/ml after 20 hrs relative to control; format: functional
[36] = test system: Staphylococcus aureus; assay: Antibacterial activity against Staphylococcus aureus ATCC 25923 assessed as effect on planktonic growth at 5.5 ug/ml after 20 hrs relative to control; format: functional
[37] = test system: Streptococcus mutans; assay: Antibacterial activity against Streptococcus mutans ATCC 25175 assessed as effect on planktonic growth at 0.68 ug/ml after 20 hrs relative to control; format: functional
[38] = test system: Staphylococcus aureus; assay: Antibacterial activity against Staphylococcus aureus ATCC 25923 assessed as effect on planktonic growth at 87.5 ug/ml after 20 hrs relative to control; format: functional
[39] = test system: Pseudomonas aeruginosa; assay: Antibacterial activity against Pseudomonas aeruginosa ATCC 27853 assessed as effect on planktonic growth at 1.37 ug/ml after 20 hrs relative to control; format: functional
[40] = test system: Staphylococcus aureus; assay: Antibacterial activity against Staphylococcus aureus ATCC 25923 assessed as effect on planktonic growth at 0.17 ug/ml after 20 hrs relative to control; format: functional
[41] = test system: Pseudomonas aeruginosa; assay: Antibacterial activity against Pseudomonas aeruginosa ATCC 27853 assessed as effect on planktonic growth at 0.17 ug/ml after 20 hrs relative to control; format: functional
[42] = test system: Staphylococcus epidermidis; assay: Antibacterial activity against Staphylococcus epidermidis ATCC 35547 assessed as effect on planktonic growth at 5.5 ug/ml after 20 hrs relative to control; format: functional

COc1ccc(C)cc1C1=C(Br)C(=O)N(CC(C)C)C1(O)Cc1cccc(Cl)c1 (stereo unspecified)
Activity [1]: 0.9% | Activity [2]: -28.5% | Activity [3]: 1.9% | Activity [4]: -11% | Activity [5]: -2.9% | Activity [6]: -12.5% | Activity [7]: 2.4% | Activity [8]: 3.4% | Activity [9]: 1.2% | Activity [10]: -7.3% | Activity [11]: -17.2% | Activity [12]: -9.6% | Activity [13]: -7.6% | Activity [14]: -7.8% | Activity [15]: -2.6% | Activity [16]: -10.6% | inhibition [17]: Dose-dependent effect | Activity [18]: -4.8% | Activity [19]: 11.4% | Activity [20]: -7% | Activity [21]: 3% | Activity [22]: 2.4% | Activity [23]: -5% | Activity [24]: -1.3% | Activity [25]: -11.6% | Activity [26]: 12.8% | Activity [27]: 10.8% | inhibition [28]: Dose-dependent effect | IC50 [28]: > 87.5 µg/mL | Activity [29]: -8.6% | Activity [30]: -7.9% | Activity [31]: 9.7% | Activity [32]: -31.2% | Activity [33]: 3.5% | Activity [34]: 4.3% | Activity [35]: -21% | Activity [36]: 5.4% | Activity [37]: 1.1% | Activity [38]: -12.1% | Activity [39]: -3.4% | Activity [40]: 6.7% | Activity [41]: -1.6% | Activity [42]: 12%

COc1ccc(Br)cc1C1=C(Br)C(=O)O/C1=C\c1cccc(Cl)c1
Activity [1]: -2.4% | Activity [2]: 20.6% | Activity [3]: 0.1% | Activity [4]: 12.4% | Activity [5]: 16.2% | Activity [6]: -5.8% | Activity [7]: -6.1% | Activity [8]: 43.1% | Activity [9]: -1.6% | Activity [10]: 8.8% | Activity [11]: 8.6% | Activity [12]: -16.9% | Activity [13]: 13.4% | Activity [14]: 28.4% | Activity [15]: -3.1% | Activity [16]: -9.5% | inhibition [17]: Dose-dependent effect | IC50 [17]: > 87.5 µg/mL | Activity [18]: 8.9% | Activity [19]: 14.5% | Activity [20]: -21.1% | Activity [21]: -1% | Activity [22]: 7.6% | Activity [23]: 75.8% | Activity [24]: 0.3% | Activity [25]: -7.3% | Activity [26]: 30.1% | Activity [27]: 20% | inhibition [28]: Dose-dependent effect | IC50 [28]: 40 µg/mL (≈ 85 µM) | Activity [29]: -19.8% | Activity [30]: -15% | Activity [31]: 27% | Activity [32]: 14.9% | Activity [33]: -1.7% | Activity [34]: 43.6% | Activity [35]: 0.5% | Activity [36]: 36.6% | Activity [37]: 8.4% | Activity [38]: 121.6% | Activity [39]: -13.2% | Activity [40]: 13.8% | Activity [41]: 1.4% | Activity [42]: 1.6%

COc1ccc(Br)cc1C1=C(Br)C(=O)O/C1=C\c1ccc(Br)cc1
Activity [1]: -2.2% | Activity [2]: 22.1% | Activity [3]: 4.5% | Activity [4]: 10.3% | Activity [5]: 15% | Activity [6]: 4% | Activity [7]: 0.6% | Activity [8]: 23.1% | Activity [9]: -0.2% | Activity [10]: 3.9% | Activity [11]: -1.5% | Activity [12]: -17.6% | Activity [13]: 7.2% | Activity [14]: 31.9% | Activity [15]: -1.8% | Activity [16]: -12.1% | inhibition [17]: Dose-dependent effect | IC50 [17]: > 87.5 µg/mL | Activity [18]: 12.3% | Activity [19]: 0.5% | Activity [20]: -19.2% | Activity [21]: 4.5% | Activity [22]: 3.8% | Activity [23]: 13.1% | Activity [24]: -1.9% | Activity [25]: -12.9% | Activity [26]: 5.6% | Activity [27]: 0.8% | inhibition [28]: Dose-dependent effect | IC50 [28]: 41.3 µg/mL (≈ 80.2 µM) | Activity [29]: -22% | Activity [30]: -15.1% | Activity [31]: 6.7% | Activity [32]: -13.5% | Activity [33]: 8.1% | Activity [34]: 15.8% | Activity [35]: -11.3% | Activity [36]: 8.3% | Activity [37]: 7% | Activity [38]: 9.4% | Activity [39]: -8.6% | Activity [40]: -1.6% | Activity [41]: -1.8% | Activity [42]: 1%
